We go through two compounds from PMC9549809, “In vivo behavior of [^64Cu]NOTA-terpyridine platinum, a novel chemo-radio-theranostic agent for imaging, and therapy of colorectal cancer” (Frontiers in Medicine, 2022).

The subject of data set [1] is HCT116 tumor. As to conditions: cited from earlier work.
For data set [2], the system named is HCT116 tumor. The experiment in a line: Oxaliplatin in the same HCT116 mouse model (previous study). Format: in vivo, nude mice.
Data set [3] concerns plasma protein. The note with it: 24 h; cited from earlier work.
In data set [4] the test system is tumor. Also on record: method as in PMID 24337603. As to conditions: cited from earlier work.
Data set [5] has as its system HCT116 cells. Also on record: method as in PMID 34578470. The note with it: cited from earlier work.

Like-named read-outs stand apart in the source and are kept apart here.

For `O=C1[O][Pt]2([NH][C@@H]3CCCC[C@H]3[NH]2)[O]C1=O` [oxaliplatin], the “quantity measured in the tumor” value in data set [1] (10 mg/kg (25 nmol/g mouse), 48 h post-injection) is recorded as 0.3 nmol/g. In addition, the “quantity in tumor as % of the injected dose” value in data set [1] (10 mg/kg, 48 h post-injection) was 1.2%. In data set [1] (48 h post-injection), the “concentration in the tumor” value is 0.12 μg/g of tumor. Besides, in data set [1] (same mouse model, irradiated 48 h post-injection), the “EF, oxaliplatin plus 15 Gy external beam vs oxaliplatin alone (TGD)” value is 5.18. Also, the “times more platinum drug in the tumor than with [^64Cu]NOTA-C3-TP” value in data set [2] (48 h) is recorded as 333 times. Further, the “plasma concentration, times higher than [^64Cu]NOTA-C3-TP” value in data set [2] (48 h post-injection, injected dose 1,250 times higher) is reported as “about 6 times”. In data set [3], the “bound to plasma protein” value was 98%.
Regarding `CC(=O)[O-].CC(=O)[O-].[64Cu+2]` [^64Cu(OAc)2], the tumor uptake was 1.28 ± 0.13 %ID/g in data set [4] (15 min post-injection), 2.76 ± 0.63 %ID/g in data set [4] (2 h post-injection) and 1.28 ± 0.07 %ID/g in data set [4] (16 h). Further, the “nuclear accumulation relative to ^64Cu-NOTA-C3-TP” value in data set [5] is “significantly lower”.
